According to US4409210A, “Antibiotic compound” (priority 1982, dated 1983):
*1 amine or outer side, *2 acyl side, *3 side chain or, on linkers, in order; H or OH if unused. Where a SMILES comes first, the peptide text is derived from it. Bridges are numbered along the chain shown (N, C = ends). [ ]: non-standard residue; d: D form. ξ: configuration not given here. X2 = CCCCCCCCCCCC(CC(=O)[*:1])O[*:2]; ξAsp(3ξ-OH) = NC(C(=O)O)C(O)C(=O)O; X1 = O=C(C1C(O)CCN1[*:1])[*:2]

Assays:
Type in all cases: cell-based
[1] = system: Clostridium perfringens A22787; test: microbe, parasite or virus in culture; details: for MIC: Clostridium perfringens, A22787, read-out: minimum inhibitory concentration (MIC)
[2] = system: Staphylococcus aureus A20610; test: MIC, serial two-fold dilution method (aerobic); details: Staphylococcus aureus A20610, Mueller-Hinton agar, inoculum 10^4; for MIC: read-out: minimum inhibitory concentration (MIC)
Proteus vulgaris A9436 = test: MIC, serial two-fold dilution method (aerobic); details: Proteus vulgaris A9436, Mueller-Hinton agar, inoculum 10^4; for MIC: read-out: minimum inhibitory concentration (MIC)
[3] = system: Staphylococcus aureus Smith; test: MIC, serial two-fold dilution method (aerobic); details: Staphylococcus aureus Smith, Mueller-Hinton agar, inoculum 10^4; for MIC: read-out: minimum inhibitory concentration (MIC)
[4] = system: Clostridium perfringens A9635; test: microbe, parasite or virus in culture; details: for MIC: Clostridium perfringens, A9635, read-out: minimum inhibitory concentration (MIC)
[5] = system: Staphylococcus aureus A20239; test: MIC, serial two-fold dilution method (aerobic); details: Staphylococcus aureus A20239, Mueller-Hinton agar, inoculum 10^4; for MIC: read-out: minimum inhibitory concentration (MIC)
[6] = system: Peptococcus magnas A21676; test: MIC, serial two-fold dilution method (anaerobic); details: Peptococcus magnas A21676, GAM agar medium, inoculum 10^7-10^8; for MIC: read-out: minimum inhibitory concentration (MIC)
[7] = system: Bacteroides fragilis CUH-24; test: MIC, serial two-fold dilution method (anaerobic); details: Bacteroides fragilis CUH-24, GAM agar medium, inoculum 10^7-10^8; for MIC: CUH24, read-out: minimum inhibitory concentration (MIC)
[8] = system: Klebsiella pneumoniae D-11; test: MIC, serial two-fold dilution method (aerobic); details: Klebsiella pneumoniae D-11, Mueller-Hinton agar, inoculum 10^4; for MIC: D11, read-out: minimum inhibitory concentration (MIC)
[9] = system: Bacteroides fragilis A22533; test: MIC, serial two-fold dilution method (anaerobic); details: Bacteroides fragilis A22533, GAM agar medium, inoculum 10^7-10^8; for MIC: read-out: minimum inhibitory concentration (MIC)
[10] = system: Propionibacterium acnes A22650; test: MIC, serial two-fold dilution method (anaerobic); details: Propionibacterium acnes A22650, GAM agar medium, inoculum 10^7-10^8; for MIC: Cutibacterium acnes, read-out: minimum inhibitory concentration (MIC)
[11] = system: Bacteroides fragilis A21900; test: MIC, serial two-fold dilution method (anaerobic); details: Bacteroides fragilis A21900, GAM agar medium, inoculum 10^7-10^8; for MIC: read-out: minimum inhibitory concentration (MIC)
[12] = system: Pseudomonas aeruginosa D-113; test: MIC, serial two-fold dilution method (aerobic); details: Pseudomonas aeruginosa D-113, Mueller-Hinton agar, inoculum 10^4; for MIC: D113, read-out: minimum inhibitory concentration (MIC)
[13] = system: Staphylococcus aureus BX-1633; test: MIC, serial two-fold dilution method (aerobic); details: Staphylococcus aureus BX-1633, Mueller-Hinton agar, inoculum 10^4; for MIC: BX1633, read-out: minimum inhibitory concentration (MIC)
[14] = system: Bacteroides fragilis A20928-1; test: MIC, serial two-fold dilution method (anaerobic); details: Bacteroides fragilis A20928-1, GAM agar medium, inoculum 10^7-10^8; for MIC: A209281, read-out: minimum inhibitory concentration (MIC)
[15] = system: Staphylococcus aureus A22421; test: MIC, serial two-fold dilution method (aerobic); details: Staphylococcus aureus A22421, Mueller-Hinton agar, inoculum 10^4; for MIC: read-out: minimum inhibitory concentration (MIC)
[16] = system: Bacteroides fragilis CUH-9; test: MIC, serial two-fold dilution method (anaerobic); details: Bacteroides fragilis CUH-9, GAM agar medium, inoculum 10^7-10^8; for MIC: CUH9, read-out: minimum inhibitory concentration (MIC)
[17] = system: Peptostreptococcus anaerobius A21905; test: MIC, serial two-fold dilution method (anaerobic); details: Peptostreptococcus anaerobius A21905, GAM agar medium, inoculum 10^7-10^8; for MIC: read-out: minimum inhibitory concentration (MIC)
[18] = system: Veillonella parvula A20010; test: MIC, serial two-fold dilution method (anaerobic); details: Veillonella parvula A20010, GAM agar medium, inoculum 10^7-10^8; for MIC: read-out: minimum inhibitory concentration (MIC)
[19] = system: Fusobacterium varium ATCC 8501; test: MIC, serial two-fold dilution method (anaerobic); details: Fusobacterium varium ATCC 8501, GAM agar medium, inoculum 10^7-10^8; for MIC: ATCC8501, read-out: minimum inhibitory concentration (MIC)
[20] = system: Bacillus subtilis ATCC 6633; test: MIC, serial two-fold dilution method (aerobic); details: Bacillus subtilis ATCC 6633, Mueller-Hinton agar, inoculum 10^4; for MIC: ATCC6633, read-out: minimum inhibitory concentration (MIC)
[21] = system: Staphylococcus aureus 209P; test: MIC, serial two-fold dilution method (aerobic); details: Staphylococcus aureus 209P, Mueller-Hinton agar, inoculum 10^4; for MIC: read-out: minimum inhibitory concentration (MIC)
[22] = system: Clostridium ramosum A21970; test: MIC, serial two-fold dilution method (anaerobic); details: Clostridium ramosum A21970, GAM agar medium, inoculum 10^7-10^8; for MIC: Thomasclavelia ramosa, read-out: minimum inhibitory concentration (MIC)
Sarcina lutea PCI-1001 = test: MIC, serial two-fold dilution method (aerobic); details: Sarcina lutea PCI-1001, Mueller-Hinton agar, inoculum 10^4; for MIC: Micrococcus luteus, PCI1001, read-out: minimum inhibitory concentration (MIC)
[23] = system: Bacteroides fragilis A20926; test: MIC, serial two-fold dilution method (anaerobic); details: Bacteroides fragilis A20926, GAM agar medium, inoculum 10^7-10^8; for MIC: read-out: minimum inhibitory concentration (MIC)
[24] = system: Bacteroides fragilis A22695; test: MIC, serial two-fold dilution method (anaerobic); details: Bacteroides fragilis A22695, GAM agar medium, inoculum 10^7-10^8; for MIC: read-out: minimum inhibitory concentration (MIC)
[25] = system: Fusobacterium necrophorum A20013; test: MIC, serial two-fold dilution method (anaerobic); details: Fusobacterium necrophorum A20013, GAM agar medium, inoculum 10^7-10^8; for MIC: read-out: minimum inhibitory concentration (MIC)
Proteus mirabilis A9554 = test: MIC, serial two-fold dilution method (aerobic); details: Proteus mirabilis A9554, Mueller-Hinton agar, inoculum 10^4; for MIC: read-out: minimum inhibitory concentration (MIC)
[26] = system: Staphylococcus aureus #193; test: MIC, serial two-fold dilution method (aerobic); details: Staphylococcus aureus #193, Mueller-Hinton agar, inoculum 10^4; for MIC: read-out: minimum inhibitory concentration (MIC)

CC1(C)S[C@@H]2[C@H](NC(=O)[C@H](N)c3ccccc3)C(=O)N2[C@H]1C(=O)O [Ampicillin]
12.5 mg/L: MIC [2] | MIC [15] | MIC [19]
< 0.05 mg/L: MIC (Sarcina lutea PCI-1001)
0.2 mg/L: MIC [4] | MIC [11] | MIC [14] | MIC [23]
3.1 mg/L: MIC [13] | MIC [16]
0.8 mg/L: MIC [8] | MIC [22] | MIC (Proteus mirabilis A9554)
0.1 mg/L: MIC [1] | MIC [6] | MIC [17]
> 100 mg/L: MIC [9] | MIC [12] | MIC [24] | MIC [25]
0.05 mg/L: MIC [3] | MIC [10]
0.013 mg/L: MIC [20] | MIC [21]
0.4 mg/L: MIC (Proteus vulgaris A9436) | MIC [18]
50 mg/L: MIC [7]
1.6 mg/L: MIC [5] | MIC [26]

CCCCCCCCCCCC1CC(=O)N2CCCC2C(=O)NC(CO)C(=O)N2CCCC2C(=O)NC(CCCNC(=N)N)C(=O)NC(C(O)C(=O)O)C(=O)NC(CO)C(=O)N2CCC(O)C2C(=O)NC(C(O)C(=O)O)C(=O)O1 (stereo not drawn) [Bu-2517] (PSPR[ξAsp(3ξ-OH)]S[X1][ξAsp(3ξ-OH)]; linker N-C via X2; configuration not given here)
25 mg/L: minimum inhibitory concentration (MIC) [14] | minimum inhibitory concentration (MIC) [23]
50 mg/L: minimum inhibitory concentration (MIC) [19]
100 mg/L: minimum inhibitory concentration (MIC) [16]
0.8 mg/L: minimum inhibitory concentration (MIC) [10] | minimum inhibitory concentration (MIC) [15] | minimum inhibitory concentration (MIC) [17] | minimum inhibitory concentration (MIC) [20]
3.1 mg/L: minimum inhibitory concentration (MIC) ([1]; Clostridium perfringens A22787, GAM agar medium, inoculum 10^7-10^8)
6.3 mg/L: minimum inhibitory concentration (MIC) [11]
1.6 mg/L: minimum inhibitory concentration (MIC) [2] | minimum inhibitory concentration (MIC) [3] | minimum inhibitory concentration (MIC) ([4]; Clostridium perfringens A9635, GAM agar medium, inoculum 10^7-10^8) | minimum inhibitory concentration (MIC) [5] | minimum inhibitory concentration (MIC) [6] | minimum inhibitory concentration (MIC) [13] | minimum inhibitory concentration (MIC) [18] | minimum inhibitory concentration (MIC) [21] | minimum inhibitory concentration (MIC) [22] | minimum inhibitory concentration (MIC) [26]
< 0.05 mg/L: minimum inhibitory concentration (MIC) (Sarcina lutea PCI-1001)
> 100 mg/L: minimum inhibitory concentration (MIC) (Proteus vulgaris A9436) | minimum inhibitory concentration (MIC) [7] | minimum inhibitory concentration (MIC) [8] | minimum inhibitory concentration (MIC) [9] | minimum inhibitory concentration (MIC) [12] | minimum inhibitory concentration (MIC) [24] | minimum inhibitory concentration (MIC) [25] | minimum inhibitory concentration (MIC) (Proteus mirabilis A9554)

O=C(N[C@H](CO)[C@H](O)c1ccc([N+](=O)[O-])cc1)C(Cl)Cl [Chloramphenicol]
12.5 mg/L: MIC (Proteus mirabilis A9554)
> 100 mg/L: MIC [12]
50 mg/L: MIC [2]
6.3 mg/L: MIC [1] | MIC [5] | MIC [13] | MIC [15] | MIC [19] | MIC [22] | MIC [25]
3.1 mg/L: MIC (Proteus vulgaris A9436) | MIC [3] | MIC [4] | MIC [9] | MIC [11] | MIC [14] | MIC [18] | MIC [20] | MIC [21] | MIC [23] | MIC [24] | MIC [26]
0.4 mg/L: MIC [10]
1.6 mg/L: MIC [6] | MIC [7] | MIC [8] | MIC [16] | MIC [17] | MIC (Sarcina lutea PCI-1001)
